According to paper PMC8703317, “2-(Piperidin-4-yl)acetamides as Potent Inhibitors of Soluble Epoxide Hydrolase with Anti-Inflammatory Activity” (Pharmaceuticals, 2021):

Key:
murine sEH = target: T1, murine sEH (Mus musculus, UniProt P34914); assay: fluorescent-based sEH inhibition assay, recombinant mouse sEH; format: biochemical; settings: baculovirus expressed recombinant mouse sEH, average of three replicates
T1 construct: made in house; host or cells: baculovirus expression system (insect cells implied)
T1 sequence (P34914 1-554): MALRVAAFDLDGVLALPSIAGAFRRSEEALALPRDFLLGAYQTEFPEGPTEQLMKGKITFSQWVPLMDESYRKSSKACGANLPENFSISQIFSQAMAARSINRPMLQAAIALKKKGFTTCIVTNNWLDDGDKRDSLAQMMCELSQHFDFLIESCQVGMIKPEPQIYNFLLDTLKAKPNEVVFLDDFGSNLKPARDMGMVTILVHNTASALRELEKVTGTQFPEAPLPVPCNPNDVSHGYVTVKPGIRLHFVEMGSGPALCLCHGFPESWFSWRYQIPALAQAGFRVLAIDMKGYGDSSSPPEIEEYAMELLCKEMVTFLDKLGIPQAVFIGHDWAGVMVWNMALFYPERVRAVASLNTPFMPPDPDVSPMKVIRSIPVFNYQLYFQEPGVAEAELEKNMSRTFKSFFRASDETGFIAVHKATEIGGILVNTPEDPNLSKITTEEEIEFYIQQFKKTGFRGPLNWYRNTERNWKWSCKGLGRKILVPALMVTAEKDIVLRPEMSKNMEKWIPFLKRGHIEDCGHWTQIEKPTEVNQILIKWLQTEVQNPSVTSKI
Protocol: The potency of all the new compounds as inhibitors of the human and murine sEH was tested using a previously reported sensitive fluorescent-based assay using baculovirus expressed recombinant human and mouse sEH [28].

[1] = system: SH-SY5Y neuroblastoma cells; assay: cytotoxicity by propidium iodide staining in SH-SY5Y cells; format: cell-based; settings: 24 h incubation, up to 100 µM (highest concentration tested), vehicle DMSO 0.1%, n = 10–12
Protocol: Cytotoxicity was evaluated in the human neuroblastoma SH-SY5Y cell line (ATCC Number: CRL-2266). Cells were cultured in minimum essential medium/HAM’s-F12 (1:1, v/v) medium, supplemented with non-essential amino acids, L-glutamine 1 mM, gentamycin 50 µM and 10% heat inactivated fetal bovine serum (FBS). For experiments, the cells were seeded at 3 × 10^5 cells/mL (100 µL/well) in 96-well plates. […] DMSO 0.1% was used as vehicle. Treated cultures were returned to the incubator for a 24 h test exposure. One hour before termination, cell death was measured by PI staining. Briefly, PI (Molecular Probes) at the final concentration of 7.5 µg/mL was added to the cells and incubated for 1 h. PI enters into cells with damaged membrane and binds to DNA yielding intense red fluorescence. Fluorescence was measured in a SAFAS FLX-Xenius microplate reader (Monaco) at 530 nm excitation and 645 nm emission. Percentage of cell death for a given fluorescence value (Ft) was calculated according to the values given by Triton X100 killed cells (Fmax; 100% cell death) and vehicle treated cells (Fmin; 0% cell death) [% = ((Ft-Fmin)/(Fmax-Fmin)) × 100]. Each treatment was assayed in 3–4 wells per experiment and the experiment was repeated 3 times in cultures of different cell passages. Data were analyzed by ANOVA.

[2] = system: microglial BV2 cells activated with LPS; assay: nitric oxide generation (nitrite, Griess) in LPS-activated BV2 microglial cells; format: cell-based; settings: LPS 0.1 or 1 μg/mL, 24 h
Protocol: Inflammatory changes were determined by the measure of nitric oxide generation, as the endpoint of iNOS activation, in microglial BV2 cells. BV2 cells (HyperCLDB, Banca Biologica e Cell Factory, ICLC ATL 03001) were grown in RPMI 1640 medium, supplemented with L-glutamine 2 mM, gentamycin 50 µM and 10% FBS. For experiments, cells were seeded in 96-well plates at 2 × 10^5 cells/mL, 100 µL/well. […] After 1 h of incubation, the cells were treated with the pro-inflammatory chemical LPS (0.1 μg/mL or 1 μg/mL; strain E. coli […], Sigma-Aldrich, L-2654, batch #120M4028) and further incubated for 24 h. TPPU at 100 µM was also assayed as a reference anti-inflammatory compound. DMSO 0.1% was used as vehicle. Cells were maintained at 37 °C in a humidified incubator with 5% CO2 throughout the procedures. Nitric oxide released to the culture medium was measured by the colorimetric Griess reaction that detects nitrite (NO2^–), a stable reaction product of nitric oxide and molecular oxygen. Briefly, 50 µL of conditioned medium were incubated with 50 µL of Griess reagent for 10 min at room temperature. Optical density was measured at 540 nm. Nitrite concentration was determined from a sodium nitrite standard curve. Results were normalized by cell protein content in the well and expressed as a percentage of the average maximal values given by the pro-inflammatory agent (LPS 1 µg/mL). Each treatment was performed in 3–5 wells and the whole experiment was repeated 3–4 times in cultures of different cell passage. Data were analyzed by ANOVA followed by Tukey’s multiple comparisons test.

[3] = microsomal stability, mouse microsomes; format: in vitro ADME; settings: pooled murine microsomes, pH 7.4; 60 min incubation with mouse microsomes, NADPH, 37 °C
Protocol: (§1) The human and murine pooled microsomes employed were purchased from Tebu-Xenotech (Barcelona, Spain). The compound was incubated at 37 °C with the microsomes in a 50 mM phosphate buffer (pH = 7.4) containing 3 mM MgCl2, 1 mM NADP, 10 mM glucose-6-phosphate and 1 U/mL glucose-6-phosphate-dehydrogenase. Samples (75 µL) were taken from each well at 0, 10, 20, 40 and 60 min and transferred to a plate containing 4 °C 75 µL acetonitrile and 30 µL of 0.5% formic acid in water were added for improving the chromatographic conditions. The plate was centrifuged (46000 g, 30 min) and supernatants were taken and analyzed in a UPLC-MS/MS (Xevo-TQD, Waters) by employing a BEH C18 column and an isocratic gradient of 0.1% formic acid in water: 0.1% formic acid acetonitrile (60:40). The metabolic stability of the compounds was calculated from the logarithm of the remaining compounds at each of the time points studied.

[4] = microsomal stability, human microsomes; format: in vitro ADME; settings: pooled human microsomes, pH 7.4; 60 min incubation with human microsomes, NADPH, 37 °C
Protocol: as §1

For O=C(CC1CCN(c2ccc(C(=O)O)cc2)CC1)NC12CC3CC(F)(CC(C1)c1ccccc13)C2 [10c, 4-(4-(2-((9-Fluoro-5,6,8,9,10,11-hexahydro-7H-5,9:7,11-dimethanobenzo[9]annulen-7-yl)amino)-2-oxoethyl)piperidin-1-yl)benzoic Acid], the IC50 (murine sEH) was 0.7 nM, the “cytotoxicity, percentage of cell death (PI staining)” value [1] was “no cytotoxicity” and the “nitric oxide generation (nitrite levels) in presence of LPS” value ([2]; compound at 50 µM) was “indistinguishable from control levels”. For the same molecule, the “nitric oxide generation (nitrite levels) in presence of LPS” value ([2]; compound at 100 µM) was “indistinguishable from control levels”, the remaining at 1 h [3] was 29% and the remaining at 1 h [4] was 60%.
